Structures can show the parent of a compound that is named as a salt.
Columns and labels:
[1] = target: T1, horseradish peroxidase (HRP) tagged delF508-CFTR (Homo sapiens, UniProt P13569, DEL508-508); test: Measurement of delF508-CFTR-HRP surface expression in CFBE41o- cells; assay type: cell-based; conditions: delF508-CFTR-HRP surface expression, CFBE41o- cells; for Emax: read-out: DelF508-CFTR-HRP Amax %; for EC50: read-out: DelF508-CFTR-HRP EC50;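 as to DelF508-CFTR-HRP Amax %: percent efficacy relative to reference corrector lumacaftor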
T1 construct: expressed in transfected cells
T1 sequence (P13569 with tags, fused parts or gaps DEL508-508): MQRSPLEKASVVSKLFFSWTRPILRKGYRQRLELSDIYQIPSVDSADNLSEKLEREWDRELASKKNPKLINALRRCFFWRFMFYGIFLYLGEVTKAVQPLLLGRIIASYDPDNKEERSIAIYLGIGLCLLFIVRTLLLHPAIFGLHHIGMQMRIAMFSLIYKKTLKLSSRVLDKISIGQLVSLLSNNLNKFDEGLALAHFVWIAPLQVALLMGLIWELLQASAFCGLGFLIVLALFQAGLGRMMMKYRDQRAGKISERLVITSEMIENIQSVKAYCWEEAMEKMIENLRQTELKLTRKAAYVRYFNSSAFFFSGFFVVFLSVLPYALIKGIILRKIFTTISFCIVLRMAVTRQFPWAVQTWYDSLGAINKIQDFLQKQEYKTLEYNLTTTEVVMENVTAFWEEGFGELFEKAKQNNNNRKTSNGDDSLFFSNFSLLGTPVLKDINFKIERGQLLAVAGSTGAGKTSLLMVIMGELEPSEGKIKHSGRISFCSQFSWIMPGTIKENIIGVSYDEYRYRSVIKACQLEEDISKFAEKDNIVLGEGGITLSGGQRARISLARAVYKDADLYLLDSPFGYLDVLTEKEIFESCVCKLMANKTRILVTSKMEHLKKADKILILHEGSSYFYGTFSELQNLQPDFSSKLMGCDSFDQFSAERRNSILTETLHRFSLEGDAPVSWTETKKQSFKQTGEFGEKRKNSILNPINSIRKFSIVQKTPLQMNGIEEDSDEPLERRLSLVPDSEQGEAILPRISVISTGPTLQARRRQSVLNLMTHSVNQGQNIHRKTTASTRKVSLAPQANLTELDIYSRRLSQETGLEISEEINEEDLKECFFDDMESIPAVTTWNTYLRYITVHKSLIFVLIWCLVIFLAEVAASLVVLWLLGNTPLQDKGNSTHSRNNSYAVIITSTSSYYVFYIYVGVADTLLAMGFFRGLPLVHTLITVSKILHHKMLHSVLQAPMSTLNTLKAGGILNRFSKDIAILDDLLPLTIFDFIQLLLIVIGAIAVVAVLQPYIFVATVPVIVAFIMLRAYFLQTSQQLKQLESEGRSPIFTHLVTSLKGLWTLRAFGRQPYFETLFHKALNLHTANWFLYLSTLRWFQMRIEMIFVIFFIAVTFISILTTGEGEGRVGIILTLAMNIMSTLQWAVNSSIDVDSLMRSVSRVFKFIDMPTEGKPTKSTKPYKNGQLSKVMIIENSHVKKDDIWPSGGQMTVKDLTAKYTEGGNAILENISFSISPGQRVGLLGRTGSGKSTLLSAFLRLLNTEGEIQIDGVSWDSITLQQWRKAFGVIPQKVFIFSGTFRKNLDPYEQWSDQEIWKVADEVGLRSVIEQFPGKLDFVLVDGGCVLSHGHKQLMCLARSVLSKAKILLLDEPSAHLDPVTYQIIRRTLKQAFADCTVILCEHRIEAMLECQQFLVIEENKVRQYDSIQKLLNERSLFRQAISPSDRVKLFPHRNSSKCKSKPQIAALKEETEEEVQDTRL
Procedure, shortened: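 CFBE41o- bronchial epithelial cells stably expressing delF508-CFTR with HRP in the fourth extracellular loop; expression induced 48h with 500 ng/mL doxycycline, then compounds added (top 10 μM, 10-point 3-fold series, ≤0.5% DMSO) for 24h at 37° C. Surface HRP measured by luminescence with cell-impermeant substrate; EC50 from logistic fit of triplicates, plate-normalized to lowest concentration; efficacy also relative to a reference corrector.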

delF508-CFTR = target: T2, delF508-CFTR (Homo sapiens, UniProt P13569, DEL508-508); test: Measurement of delF508-CFTR functional activity in primary human bronchial epithelial cells (HBECs) using Multi-Transepithelial Clamp Circuit (MTECC-24) assay; assay type: cell-based; conditions: primary CF HBECs; for MTECC24 CFHBEC- Amax %: test compound added 24h before assay plus potentiator, relative to reference combination (2 μM corrector + 0.5 μM potentiator); for EC50: test compound added 24h before assay, in the presence of potentiator, mean of at least two replicates, read-out: MTECC24 CFHBEC- EC50
T2 construct: functional activity of the CFTR channel (Chloride ion transport) in patient derived primary human bronchial epithelial cells; host or cells: patient-derived primary human bronchial epithelial cells (delF508-CFTR)
T2 sequence (P13569 with tags, fused parts or gaps DEL508-508): as above
Procedure, shortened: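 Patient-derived primary delF508-CFTR HBECs, differentiated at air-liquid interface ~2 weeks, treated basolaterally with compound for 24 h, then apical and basolateral compound in HEPES pH 7.4 assay medium. Equivalent short-circuit current (Ieq) recorded on MTECC-24 with sequential amiloride, forskolin, potentiator and INH-172; normalized to 0.1% DMSO, EC50 from curve fit.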

Row | Structure (SMILES) | Emax [1] | EC50 [1] | MTECC24 CFHBEC- Amax % (delF508-CFTR) | EC50 (delF508-CFTR)
1 | Cc1ccccc1-c1nc(NS(=O)(=O)c2cccc(N3CCNCC3)n2)ccc1Cl [Example 195, N-(5-chloro-6-(o-tolyl)pyridin-2-yl)-6-(piperazin-1-yl)pyridine-2-sulfonamide hydrochloride] | 213% | 3380 nM | 80.0% | 464 nM
2 | Cc1ccccc1-c1nc(NS(=O)(=O)c2cccc(N3CCN(C)C(=O)C3)n2)ccc1C(F)(F)F [Example 196, 6-(4-methyl-3-oxopiperazin-1-yl)-N-(6-(o-tolyl)-5-(trifluoromethyl)pyridin-2-yl)pyridine-2-sulfonamide] | 389% | 3060 nM | 82.4% | 9.6 nM
3 | Cc1cccc(C)c1-c1nc(NS(=O)(=O)c2cccc(N3CCN(C)CC3=O)n2)ccc1Cl [Example 197, N-(5-chloro-6-(2,6-dimethylphenyl)pyridin-2-yl)-6-(4-methyl-2-oxopiperazin-1-yl)pyridine-2-sulfonamide] | 500% | 3650 nM | 73.9% | 67 nM
4 | Cc1cccc(C)c1-c1nc(NS(=O)(=O)c2cccc(N3CCn4cc(C(F)(F)F)nc4C3)n2)ccc1Cl [Example 199, N-(5-chloro-6-(2,6-dimethylphenyl)pyridin-2-yl)-6-(2-(trifluoromethyl)-5,6-dihydroimidazo[1,2-a]pyrazin-7(8H)-yl)pyridine-2-sulfonamide] | 700% | 2220 nM | 87.1% | 38.3 nM
5 | Cc1ccc(F)cc1-c1nc(NS(=O)(=O)c2cccc(N3CC4CCC3CN4)n2)ccc1C(F)(F)F (centres unmarked) [Example 201, 6-(2,5-diazabicyclo[2.2.2]octan-2-yl)-N-(6-(5-fluoro-2-methylphenyl)-5-(trifluoromethyl)pyridin-2-yl)pyridine-2-sulfonamide Hydrochloride] | 570% | 2620 nM | 75.9% | 135 nM
6 | Cc1ccccc1-c1nc(NS(=O)(=O)c2cccc(N3C[C@@H]4C[C@H]3CN4)n2)ccc1C(F)(F)F [Example 203, 6-((1S,4S)-2,5-diazabicyclo[2.2.1]heptan-2-yl)-N-(6-(o-tolyl)-5-(trifluoromethyl)pyridin-2-yl)pyridine-2-sulfonamide hydrochloride] | 298% | 2980 nM | 80.9% | 23.3 nM
7 | Cc1ccccc1-c1nc(NS(=O)(=O)c2cccc(N3CC(O)(C(F)(F)F)C3)n2)ccc1C(F)(F)F [Example 204, 6-(3-hydroxy-3-(trifluoromethyl)azetidin-1-yl)-N-(6-(o-tolyl)-5-(trifluoromethyl)pyridin-2-yl)pyridine-2-sulfonamide] | 943% | 1730 nM | 90.6% | 5.7 nM
8 | Cc1cccc(C)c1-c1cc(C(F)(F)F)cc(NS(=O)(=O)c2cccc(N3CC(O)C3)n2)n1 [Example 205, N-(6-(2,6-dimethylphenyl)-4-(trifluoromethyl)pyridin-2-yl)-6-(3-hydroxyazetidin-1-yl)pyridine-2-sulfonamide] | 592% | 1290 nM | 66.8% | 1.8 nM
9 | Cc1ccccc1-c1nc(NS(=O)(=O)c2cccc(N3CC(C)(O)C3)n2)ccc1Br [Example 207, N-(5-bromo-6-(o-tolyl)pyridin-2-yl)-6-(3-hydroxy-3-methylazetidin-1-yl)pyridine-2-sulfonamide] | 503% | 2270 nM | 78.0% | 19.4 nM
10 | O=S(=O)(Nc1ccc(C(F)(F)F)c(-c2ccccc2C2CC2)n1)c1cccc(N2CC(O)C2)n1 [Example 208, N-(6-(2-cyclopropylphenyl)-5-(trifluoromethyl)pyridin-2-yl)-6-(3-hydroxyazetidin-1-yl)pyridine-2-sulfonamide] | 607% | 1380 nM | 88.1% | 5.2 nM
11 | COc1ccc(F)cc1-c1nc(NS(=O)(=O)c2cccc(N3CC(O)C3)n2)ccc1C(F)(F)F [Example 209, N-(6-(5-fluoro-2-methoxyphenyl)-5-(trifluoromethyl)pyridin-2-yl)-6-(3-hydroxyazetidin-1-yl)pyridine-2-sulfonamide] | 231% | 2700 nM | 95.6% | 139 nM
12 | Cc1cccc(C)c1-c1nc(NS(=O)(=O)c2cccc(N3CC(C)(O)C3)n2)ccc1Cl [Example 210, N-(5-chloro-6-(2,6-dimethylphenyl)pyridin-2-yl)-6-(3-hydroxy-3-methylazetidin-1-yl)pyridine-2-sulfonamide] | 507% | 716 nM | 68.7% | 2.2 nM
13 | Cc1cccc(C)c1-c1nc(NS(=O)(=O)c2cccc(N3CC(O)(C4CC4)C3)n2)ccc1Cl [Example 211, N-(5-chloro-6-(2,6-dimethylphenyl)pyridin-2-yl)-6-(3-cyclopropyl-3-hydroxyazetidin-1-yl)pyridine-2-sulfonamide] | – | 1760 nM | 71.6% | 8.6 nM
14 | Cc1ccc(C(F)(F)F)cc1-c1nc(NS(=O)(=O)c2cccc(N3CC(C)(O)C3)n2)ccc1Cl [Example 212, N-(5-chloro-6-(2-methyl-5-(trifluoromethyl)phenyl)pyridin-2-yl)-6-(3-hydroxy-3-methylazetidin-1-yl)pyridine-2-sulfonamide] | 378% | 1820 nM | 68.0% | 82 nM
15 | CC1(O)CN(c2cccc(S(=O)(=O)Nc3ccc(Cl)c(-c4ccc(F)cc4Cl)n3)n2)C1 [Example 213, N-(5-chloro-6-(2-chloro-4-fluorophenyl)pyridin-2-yl)-6-(3-hydroxy-3-methylazetidin-1-yl)pyridine-2-sulfonamide] | 224% | 2490 nM | 78.0% | 47.8 nM
16 | O=S(=O)(Nc1ccc(Cl)c(-c2ccc(F)cc2Cl)n1)c1cccc(N2CC(O)C2)n1 [Example 214, N-(5-chloro-6-(2-chloro-4-fluorophenyl)pyridin-2-yl)-6-(3-hydroxyazetidin-1-yl)pyridine-2-sulfonamide] | 256% | 2030 nM | 71.1% | 51.9 nM
17 | Cc1c(F)cccc1-c1nc(NS(=O)(=O)c2cccc(N3CC(C)(O)C3)n2)ccc1C(F)(F)F [Example 215, N-(6-(3-fluoro-2-methylphenyl)-5-(trifluoromethyl)pyridin-2-yl)-6-(3-hydroxy-3-methylazetidin-1-yl)pyridine-2-sulfonamide] | 303% | 2100 nM | 66.4% | 4.7 nM
18 | Cc1c(F)cccc1-c1nc(NS(=O)(=O)c2cccc(N3CC(O)C3)n2)ccc1C(F)(F)F [Example 216, N-(6-(3-fluoro-2-methylphenyl)-5-(trifluoromethyl)pyridin-2-yl)-6-(3-hydroxyazetidin-1-yl)pyridine-2-sulfonamide] | 446% | 1710 nM | 82.1% | 4.8 nM

From patent publication US11066369B2, “N-(pyridin-2-yl)pyridine-sulfonamide derivatives and their use in the treatment of disease” (Novartis AG, priority 2016, dated 2021)
